Here are results for six molecules from patent publication US20210255193A1, “LYSINE REACTIVE PROBES AND USES THEREOF” (The Scripps Research Institute, priority 2017, published 2021).

Test in all cases: direct labeling of recombinantly expressed proteins by gel-based ABPP (WT vs lysine mutant)
What all share (type): binding

The target in test [1] is T1, PMVK (Homo sapiens, UniProt Q15126).
T1 construct: expressed in transfected cells; host or cells: HEK 293T
T1 sequence (Q15126 1-192): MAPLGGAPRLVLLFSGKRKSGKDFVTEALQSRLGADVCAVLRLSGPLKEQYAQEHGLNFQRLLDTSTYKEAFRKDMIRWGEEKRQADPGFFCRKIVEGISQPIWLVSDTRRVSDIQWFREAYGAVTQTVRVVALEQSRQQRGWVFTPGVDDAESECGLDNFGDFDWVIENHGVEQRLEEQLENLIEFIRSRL
As to conditions: PMVK K48, KR mutant; 10 μM probe, 1 h. From the text:
(§1) Subcloning and mutagenesis. Unless noted below, genes were amplified from cDNA prepared from low passage HEK 293T cells using the Ribozol RNA extraction reagent (Amresco) and the iScript Reverse Transcription Supermix kit (Bio-Rad). For the following proteins cDNA clones were used for amplification instead: PFKP (5180268, Dharmacon), HK1 (BC008730, transomic), SIN3A (BC137098, transomic), G6PD (BC000337, transomic) and TGIF1 (BC031268, transomic). Mouse CARM1 in pFLAG-CMV-6c was a kind gift from the Mowen lab (TSRI). NUDT2 was obtained as synthesized gene (IDT). DNA was amplified with custom forward and reverse primers using phusion polymerase (NEB, M0530S), digested with the indicated restriction enzyme and ligated into pFLAG-CMV-6c or pRK5 with the appropriate affinity tag. Lysine mutants were generated using QuikChange site-directed mutagenesis using Phusion® High-Fidelity DNA Polymerase and primers containing the desired mutations and their respective complements. The cloning of TTR and its K35A mutant has been described in Choi et al., “Chemoselective small molecules that covalently modify one lysine in a non-enzyme protein in plasma,” Nat. Chem. Biol. 6, 133-139 (2010). TTR was expressed in E. coli and purified as described. For gel-based experiments 1 μM TTR was added into 1 mg ml^−1 soluble MDA-MB-231 lysate.
(§2) Recombinant expression of proteins by transient transfection. HEK 293T cells were grown to 50% confluency in 10 ml DMEM supplemented with 10% fetal bovine serum (FBS), penicillin, streptomycin and glutamine in 10 cm tissue culture dishes. 3 μg of DNA was diluted in 500 μL DMEM and 30 μL of PEI (MW 40,000, 1 mg ml^−1, Polysciences) were added. The mixture was incubated at room temperature for 30 min and added dropwise to the cells. Cells were grown for 48 h at 37° C. with 5% CO2. Cells were washed with cold PBS, scraped with cold PBS and cell pellets were isolated by centrifugation (1,400 g, 3 min, 4° C.), and stored at −80° C. until use. Cell pellets were resuspended in PBS, lysed by sonication and fractionated (100,000 g, 45 min) to yield soluble and membrane fractions. The soluble fraction was adjusted to a final protein concentration of 1 mg ml^−1 for gel-based ABPP experiments.
(§3) Direct labeling of recombinantly expressed proteins by gel-based ABPP. 50 μL of soluble HEK 293T proteome (1 mg ml^−1) expressing the respective protein (WT or KR mutant) or transfected with an empty vector were treated with 10 μM of the indicated probe for 1 h at room temperature. The samples were analyzed as described in the previous section. For quantification of relative labeling of the different protein variants, the intensity of labeling was determined by quantifying the integrated optical intensity of the bands using ImageLab 5.2.1 software (BioRad).

The target of test [2] is T2, Sin3a (Homo sapiens, UniProt Q96ST3).
T2 construct: expressed in transfected cells; host or cells: HEK 293T
T2 sequence (Q96ST3 1-400): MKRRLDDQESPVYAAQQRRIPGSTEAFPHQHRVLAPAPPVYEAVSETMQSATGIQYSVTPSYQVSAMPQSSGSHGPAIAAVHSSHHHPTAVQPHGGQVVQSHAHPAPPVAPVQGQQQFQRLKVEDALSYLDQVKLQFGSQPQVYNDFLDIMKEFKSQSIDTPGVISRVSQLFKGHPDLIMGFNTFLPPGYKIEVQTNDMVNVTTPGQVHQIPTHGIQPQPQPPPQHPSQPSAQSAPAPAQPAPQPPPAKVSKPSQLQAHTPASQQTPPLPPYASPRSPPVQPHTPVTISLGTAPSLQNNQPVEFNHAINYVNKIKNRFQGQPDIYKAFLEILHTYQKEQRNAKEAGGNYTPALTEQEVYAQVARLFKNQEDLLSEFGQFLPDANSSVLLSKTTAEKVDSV
As to conditions: Sin3a K155, KR mutant; 10 μM probe, 1 h.
Source text: as §1, §2, §3

The target in test [3] is T3, PFKP (Homo sapiens, UniProt Q01813).
T3 construct: Flag; expressed in transfected cells; host or cells: HEK 293T, transient transfection, soluble lysate; cDNA clone 5180268 (Dharmacon)
T3 sequence (Q01813 1-784): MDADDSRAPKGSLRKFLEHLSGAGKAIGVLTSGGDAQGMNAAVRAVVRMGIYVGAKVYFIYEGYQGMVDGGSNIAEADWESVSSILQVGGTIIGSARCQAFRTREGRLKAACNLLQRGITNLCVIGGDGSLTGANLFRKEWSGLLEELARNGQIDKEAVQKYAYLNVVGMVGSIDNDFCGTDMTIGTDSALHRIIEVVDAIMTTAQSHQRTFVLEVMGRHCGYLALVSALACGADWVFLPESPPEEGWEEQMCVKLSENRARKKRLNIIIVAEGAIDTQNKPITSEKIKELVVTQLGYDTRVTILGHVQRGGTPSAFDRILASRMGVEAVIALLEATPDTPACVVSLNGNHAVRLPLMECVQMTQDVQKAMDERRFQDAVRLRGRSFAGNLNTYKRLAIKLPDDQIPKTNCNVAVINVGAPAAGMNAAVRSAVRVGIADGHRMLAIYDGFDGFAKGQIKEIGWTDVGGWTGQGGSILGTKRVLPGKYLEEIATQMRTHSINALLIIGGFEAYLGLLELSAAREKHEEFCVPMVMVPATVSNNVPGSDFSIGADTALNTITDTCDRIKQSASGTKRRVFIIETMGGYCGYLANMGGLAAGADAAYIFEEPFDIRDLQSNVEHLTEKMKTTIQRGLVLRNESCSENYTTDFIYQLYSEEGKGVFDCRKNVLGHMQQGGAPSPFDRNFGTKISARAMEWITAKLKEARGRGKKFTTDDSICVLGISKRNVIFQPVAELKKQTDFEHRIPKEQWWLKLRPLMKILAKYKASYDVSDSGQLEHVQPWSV
As to conditions: PFKP K688, KR mutant; 10 μM probe, 1 h.
Source text: as §1, §2, §3

`C#CCCC(=O)Oc1c(F)c(F)c(S(=O)(=O)[O-])c(F)c1F.[Na+]` [probe 1, reference compound]: the “labeling of WT vs mutant protein by probe” value in test [1] is recorded as “HD (the WT labeled more than the mutant (>4x difference quantified))”; in test [2], “PD (the WT labeled more than the mutant (>2x difference quantified))”; in test [3], “HD (the WT labeled more than the mutant (>4x difference quantified))”.
As for `C#CCCC(=O)Oc1c(F)c(F)c(F)c(F)c1F` [probe 6, Pentafluorophenyl 4-pentynoate], the results for the “labeling of WT vs mutant protein by probe” value in test [1], in test [2] and in test [3] were “ND (the WT did not label more than the mutant (<2x difference quantified))”, “HD (the WT labeled more than the mutant (>4x difference quantified))” and “HD (the WT labeled more than the mutant (>4x difference quantified))”, respectively.
On to `C#Cc1ccc(C(=O)Oc2ccccc2[N+](=O)[O-])cc1` [probe 10, 2-Nitrophenyl 4-ethynylbenzoate], for which the “labeling of WT vs mutant protein by probe” value in test [1] was “ND (the WT did not label more than the mutant (<2x difference quantified))”; in test [2], “HD (the WT labeled more than the mutant (>4x difference quantified))”; in test [3], “HD (the WT labeled more than the mutant (>4x difference quantified))”.
`C#Cc1ccc(C(=O)Oc2c(F)c(F)cc(F)c2F)cc1` [probe 12, 2,3,5,6-Tetrafluorophenyl 4-ethynylbenzoate]: the figures for the “labeling of WT vs mutant protein by probe” value in test [1], in test [2] and in test [3] were “ND (the WT did not label more than the mutant (<2x difference quantified))”, “HD (the WT labeled more than the mutant (>4x difference quantified))” and “HD (the WT labeled more than the mutant (>4x difference quantified))”, respectively.
In the case of `C#Cc1ccc(C(=O)Oc2c(F)c(F)c(F)c(F)c2F)cc1` [probe 13, Pentafluorophenyl 4-ethynylbenzoate], the “labeling of WT vs mutant protein by probe” value in test [1] is given as “ND (the WT did not label more than the mutant (<2x difference quantified))”; in test [2], “HD (the WT labeled more than the mutant (>4x difference quantified))”; in test [3], “HD (the WT labeled more than the mutant (>4x difference quantified))”.
On to `Cc1cc(C)n2c1C=C1C=CC(CCC(=O)Oc3c(F)c(F)c(S(=O)(=O)[O-])c(F)c3F)=[N+]1[B-]2(F)F.[Na+]` [probe 18, reference compound], for which the “labeling of WT vs mutant protein by probe” value in test [1] is given as “HD (the WT labeled more than the mutant (>4x difference quantified))”; in test [2], “HD (the WT labeled more than the mutant (>4x difference quantified))”; in test [3] it was “PD (the WT labeled more than the mutant (>2x difference quantified))”.
